Measurements as given in EP0705841A1, “Peptides havng antigenic activity against hepatitis A virus (HAV)” (SORIN BIOMEDICA S.p.A., priority 1994, dated 1996).

Tested on: 8F4H9B monoclonal antibody
Assay: ELISA assay: reactivity of peptides adhering to the solid phase with the 8F4H9B monoclonal antibody
Type: binding, mice
Conditions: peptides in monomer form adhering to solid phase (fig.1, fig.2)
Experimental: The solid phase was obtained on PVC trays (Nunc), that were added with 200 µl of a peptide solution at various concentrations in a carbonate buffer 50 mM, pH 9.6. Trays were incubated overnight at 4°C when added with the monomer peptide solution, and for 2 hours at 37°C when added with the tetramer peptide solution.
Trays were saturated with 300 µl of a solution of gelatin 2%, in Tris-HCl, 0.1M, pH 7.5, for 1 hour at room temperature. Antibodies were diluted in a solution, comprising PBS, EDTA 0.03%, Triton-X100 0.2%, Tween 20 0.2% and BSA fraction V 3.2%; and incubated for 3 hours at 37°C. Trays were washed four times with an ET-System Sorin automatic washer, using PBS/Tween 20 0.1%, and the reaction detected by adding 100 µl of a chromogen and a substrate (Sorin DEIA KIT). The reaction was blocked after 30 min. by adding 200 µl of H₂SO₄ 1N, and the absorbance read at 450 nm.

Substance | reactivity with the 8F4H9B-HRP monoclonal antibody
DFMWMH [peptide 17 (Table 1)] | reacted with the antibody, even if having shown a lesser reactivity than the PM peptide
DVMYLH [peptide 36 (Table 1)] | reacted with the antibody, even if having shown a lesser reactivity than the PM peptide
